Measured values as given in the supplement of paper PMC11208160.

Test: recombinant barcode read abundance after kanamycin selection (control-corrected) (log10(CPM+1)); higher = more efficient recombination; sequences stand for … in AGTGCAGAGAAAATCGGCCAGTTTTCTCTGCCTGCAGTCCGCATGCCGT…AGATTTATGCAGCGGACTGCCTTTCTCCCAAAGTGATAAACCGGACAGTATCATGGACCGGTTTTCCCGGTAATCCGTATTTGCAAGGTTGGTTTCACT; site = the 11-nt target
How it was run: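 Duplicate cultures were plated either on chloramphenicol/ampicillin LB agar, serving as control, or on chloramphenicol/ampicillin/kanamycin with 0.1 mM IPTG. These came from a pooled E. coli library co-electroporated with a donor plasmid, each member pairing a target with an IS621 bridge RNA target-binding loop. Recombination efficiency equals averaged, control-corrected counts per million of recombinant-junction barcodes. It is listed as log10(CPM+1).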
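Also: IS621 recombinase and bridge RNA in Escherichia coli cells.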

Sequence | recombinant barcode read abundance (log10)
CTAGGATCTTGGGTTCTAACCTGTTGCGT (site CTAGTCTCTAC) | 0.152
CTAGGCCCTTGGGTTCTAACCTGTTGCAT (site CTAGGCCCTAA) | 0.379
CTAGGCCCTTGGGTTCTAACCTGTTGCAT (site CTAGGCCCTAC) | 1.97
CTAGGCCCTTGGGTTCTAACCTGTTGCAT (site CTAGGCCCTAG) | 0.318
CTAGGCCCTTGGGTTCTAACCTGTTGCAT (site CTAGGCCCTAT) | 2.77
CTAGTAGCTTGGGTTCTAACCTGTTGCTC (site CTAGTAGCTGA) | 1.74
CTAGTAGCTTGGGTTCTAACCTGTTGCTC (site GTAGCAGCTGA) | 0.331
CTAGTCACTTGGGTTCTAACCTGTTGCAC (site CTAGTCACTGT) | 2.81
CTAGTCACTTGGGTTCTAACCTGTTGCAC (site CTAGTGTCTGT) | 0.0438
CTAGTTGCTTGGGTTCTAACCTGTTGCAA (site CTAATTGCTTT) | 0.0799
CTAGTTGCTTGGGTTCTAACCTGTTGCAA (site CTACTTGCTTT) | 0.229
CTAGTTGCTTGGGTTCTAACCTGTTGCAA (site CTAGTTGCTTT) | 0.328
CTAGTTGCTTGGGTTCTAACCTGTTGCAA (site CTATTTGCTTT) | 0.0786
CTATAGACTTGGGTTCTAACCTGTTGCCA (site CTATAGACTTG) | 0.079
CTATAGACTTGGGTTCTAACCTGTTGCCA (site CTCTAGACTAG) | 0.206
CTATCGACTTGGGTTCTAACCTGTTGCCT (site CTATAGACTAG) | 0.0416
CTATCGACTTGGGTTCTAACCTGTTGCCT (site CTATCGACTAG) | 0.766
CTATCGACTTGGGTTCTAACCTGTTGCCT (site CTATGGACTAG) | 0.163
CTATCGACTTGGGTTCTAACCTGTTGCCT (site CTATTGACTAG) | 0.0575
CTATCGTCTTGGGTTCTAACCTGTTGCCT (site ATATCGTCTAG) | 0.0956
CTATCGTCTTGGGTTCTAACCTGTTGCCT (site CTATCGTCTAG) | 1.22
CTATGCCCTTGGGTTCTAACCTGTTGCTA (site CTATGCCCTTA) | 1.16

Sequence | recombinant barcode read abundance (log10)
CTATGCCCTTGGGTTCTAACCTGTTGCTA (site CTATGCCCTTC) | 0.179
CTATGGACTTGGGTTCTAACCTGTTGCAC (site CTATGGACTAT) | 0.132
CTATGGACTTGGGTTCTAACCTGTTGCAC (site CTATGGACTCT) | 0.242
CTATGGACTTGGGTTCTAACCTGTTGCAC (site CTATGGACTGT) | 1.3
CTATGGACTTGGGTTCTAACCTGTTGCAC (site CTATGGACTTT) | 0.0443
CTATGGACTTGGGTTCTAACCTGTTGCCT (site CTATAGACTAG) | 0.398
CTATGGACTTGGGTTCTAACCTGTTGCCT (site CTATCGACTAG) | 0.196
CTATGGACTTGGGTTCTAACCTGTTGCCT (site CTATGGACTAG) | 0.872
CTATGGACTTGGGTTCTAACCTGTTGCCT (site CTATTGACTAG) | 0.027
CTATTAGCTTGGGTTCTAACCTGTTGCCG (site CTAGTAGCTCG) | 0.418
CTATTAGCTTGGGTTCTAACCTGTTGCCG (site CTATTAGCTCG) | 0.725
CTATTGTCTTGGGTTCTAACCTGTTGCGA (site CTATTGTCTAC) | 0.0206
CTATTGTCTTGGGTTCTAACCTGTTGCGA (site CTATTGTCTCC) | 0.165
CTATTGTCTTGGGTTCTAACCTGTTGCGA (site CTATTGTCTGC) | 0.0565
CTATTGTCTTGGGTTCTAACCTGTTGCGA (site CTATTGTCTTC) | 2.4
CTCAAAGCTTGGGTTCTAACCTGTTGCCG (site CTCAAAGCTCG) | 0.258
CTCAAAGCTTGGGTTCTAACCTGTTGCCG (site TAGTCCACTGC) | 0.196
CTCAAAGCTTGGGTTCTAACCTGTTGCGA (site CTCAAAGCTTC) | 1.38
CTCAAAGCTTGGGTTCTAACCTGTTGCGA (site GGGGTCCCTAA) | 0.189
CTCAAGGCTTGGGTTCTAACCTGTTGCGT (site CTCAAGGCTAC) | 1.6
CTCAAGGCTTGGGTTCTAACCTGTTGCGT (site CTCCAGGCTCC) | 0.128
CTCACACCTTGGGTTCTAACCTGTTGCCT (site ATCACACCTAG) | 0.386

Sequence | recombinant barcode read abundance (log10)
CTCACACCTTGGGTTCTAACCTGTTGCCT (site CTCACACCTAG) | 0.931
CTCACACCTTGGGTTCTAACCTGTTGCTT (site CTCAAACCTAA) | 0.257
CTCACACCTTGGGTTCTAACCTGTTGCTT (site CTCACACCTAA) | 0.328
CTCACGACTTGGGTTCTAACCTGTTGCAG (site CTCACGACTCT) | 0.273
CTCACGACTTGGGTTCTAACCTGTTGCAG (site GAATGAGCTAG) | 0.245
CTCAGGTCTTGGGTTCTAACCTGTTGCCT (site CTCAGGTCTAG) | 1.01
CTCAGGTCTTGGGTTCTAACCTGTTGCCT (site CTCAGGTCTTG) | 0.197
CTCATACCTTGGGTTCTAACCTGTTGCGT (site CTAATACCTAC) | 0.151
CTCATACCTTGGGTTCTAACCTGTTGCGT (site CTCATACCTAC) | 1.92
CTCATAGCTTGGGTTCTAACCTGTTGCGA (site CTCATAGCTTC) | 1.06
CTCATAGCTTGGGTTCTAACCTGTTGCGA (site TGAGGGACTAG) | 0.0808
CTCATGTCTTGGGTTCTAACCTGTTGCTT (site CTCATGTCTAA) | 1.44
CTCATGTCTTGGGTTCTAACCTGTTGCTT (site TTCATGTCTAA) | 0.222
CTCATTCCTTGGGTTCTAACCTGTTGCCT (site CTCATTCCTAA) | 0.0318
CTCATTCCTTGGGTTCTAACCTGTTGCCT (site CTCATTCCTAC) | 0.216
CTCATTCCTTGGGTTCTAACCTGTTGCCT (site CTCATTCCTAG) | 0.129
CTCATTCCTTGGGTTCTAACCTGTTGCCT (site CTCATTCCTAT) | 0.0571
CTCCAAGCTTGGGTTCTAACCTGTTGCCT (site CTACAAGCTAG) | 0.105
CTCCAAGCTTGGGTTCTAACCTGTTGCCT (site CTCCAAGCTAG) | 0.665
CTCCAAGCTTGGGTTCTAACCTGTTGCCT (site CTGCAAGCTAG) | 0.0619
CTCCAAGCTTGGGTTCTAACCTGTTGCCT (site CTTCAAGCTAG) | 0.0961
CTCCAATCTTGGGTTCTAACCTGTTGCCT (site CTCCAATCTAG) | 0.666

Sequence | recombinant barcode read abundance (log10)
CTCCAATCTTGGGTTCTAACCTGTTGCCT (site CTCCTATCTAG) | 0.113
CTCCAGCCTTGGGTTCTAACCTGTTGCGG (site CTCCAACCTCC) | 0.411
CTCCAGCCTTGGGTTCTAACCTGTTGCGG (site CTCCAGCCTCC) | 1.49
CTCCCAACTTGGGTTCTAACCTGTTGCCG (site CTCCCAACTCG) | 0.136
CTCCCAACTTGGGTTCTAACCTGTTGCCG (site CTCCCTACTCT) | 0.356
CTCCCAACTTGGGTTCTAACCTGTTGCCT (site CTCCCAACTAG) | 0.379
CTCCCAACTTGGGTTCTAACCTGTTGCCT (site TTCCCTACTAG) | 0.446
CTCCCATCTTGGGTTCTAACCTGTTGCGT (site CTCCCATCTAC) | 0.874
CTCCCATCTTGGGTTCTAACCTGTTGCGT (site CTCCGATCTCC) | 0.165
CTCCCTTCTTGGGTTCTAACCTGTTGCTT (site CTCCCTTCTAA) | 0.534
CTCCCTTCTTGGGTTCTAACCTGTTGCTT (site CTTCCTTCTAG) | 0.104
CTCCGAGCTTGGGTTCTAACCTGTTGCAC (site CTCCGAGCTGT) | 0.201
CTCCGAGCTTGGGTTCTAACCTGTTGCAC (site GGAACGACTAC) | 0.0202
CTCCGATCTTGGGTTCTAACCTGTTGCGG (site CTCCCATCTAC) | 0
CTCCGATCTTGGGTTCTAACCTGTTGCGG (site CTCCGATCTCC) | 0.0434
CTCCGCCCTTGGGTTCTAACCTGTTGCCT (site CTCCGCCCTAG) | 0.776
CTCCGCCCTTGGGTTCTAACCTGTTGCCT (site CTCCGTCCTAC) | 0.0714
CTCCGGGCTTGGGTTCTAACCTGTTGCAG (site CTCCGGGCTCT) | 1.81
CTCCGGGCTTGGGTTCTAACCTGTTGCAG (site TATACACCTAC) | 0.0879
CTCCGGTCTTGGGTTCTAACCTGTTGCTT (site CACGGGTCTAA) | 0.22
